Source: article PMC5833756, “A novel ruthenium complex with xanthoxylin induces S-phase arrest and causes ERK1/2-mediated apoptosis in HepG2 cells through a p53-independent pathway” (Cell Death & Disease, 2018)
Like-named read-outs stand apart in the source and are kept apart here.

Key:
PBMC = format: cell-based; conditions: PBMC (human peripheral blood mononuclear cells, non-cancer), 72 h
B16-F10 = format: cell-based, mouse; conditions: B16-F10 (murine melanoma), 72 h
calf thymus DNA = test: DNA intercalation assay (ethidium bromide displacement); format: binding; conditions: 20 μM, cell-free, 15 min
Method: DNA intercalation was assessed by examining the ability of the complex to displace ethidium bromide from ctDNA (Sigma-Aldrich)[36]. […] After a 15 min of incubation at room temperature, fluorescence was measured using the excitation and emission wavelengths of 320 nm and 600 nm, respectively, using the Spectramax Microplate Reader (Molecular Devices).

SCC-4 = format: cell-based, human; conditions: SCC-4 (human oral squamous cell carcinoma), 72 h
SCC-25 = format: cell-based, human; conditions: SCC-25 (human oral squamous cell carcinoma), 72 h
HepG2 cells [1] = test: Trypan blue exclusion assay; format: cell-based, human
[2] = for Initial body weight: before treatment; for Final body weight / Survival / Differential leukocytes: Eosinophils / Differential leukocytes: Lymphocytes / Differential leukocytes: Monocytes / Differential leukocytes: Neutrophils / Erythrocytes / Total leukocytes: i.p. 21 days; for Differential leukocytes: Eosinophils / Differential leukocytes: Lymphocytes / Differential leukocytes: Monocytes / Differential leukocytes: Neutrophils / Erythrocytes / Total leukocytes: peripheral blood
Method: HepG2 cells (1 × 10^7 cells per 500 µL) were implanted subcutaneously into the left front armpit of the mice. […] The treatments were initiated one day after the tumor cell injection. The animals were treated intraperitoneally (200 µL per animal) once daily for 21 consecutive days. On the 22nd day, the animals were anesthetized, and peripheral blood samples were collected from the brachial artery. Animals were euthanized by anesthetic overdose, and tumors were excised and weighed.
To assess the toxicological effects, mice were weighed at the beginning and at the end of the experiment. […] Hematological analysis was performed using light microscopy. Livers, kidneys, lungs and hearts were removed, weighed and examined for any signs of gross lesions, color changes and/or hemorrhages. After gross macroscopic examination, the tumors, livers, kidneys, lungs and hearts were fixed in 4% formalin buffer and embedded in paraffin. Tissue sections were stained with hematoxylin and eosin chromogens, and a pathologist performed the analysis under a light microscope.

MRC-5 = format: cell-based; conditions: MRC-5 (human lung fibroblast, non-cancer), 72 h
BAD KO SV40 MEF = format: cell-based, mouse; conditions: 72 h
HaCAT = format: cell-based; conditions: HaCAT (human keratinocyte, non-cancer), 72 h
SCC-9 = format: cell-based, human; conditions: SCC-9 (human oral squamous cell carcinoma), 72 h
HT-29 = format: cell-based, human; conditions: HT-29 (human colon adenocarcinoma), 72 h
HepG2 = format: cell-based, human; conditions: HepG2 (human hepatocellular carcinoma), monolayer, 72 h
AGP-01 = AGP-01 (human ascitic gastric adenocarcinoma), 72 h
HepG2 cells [3] = format: cell-based, human
Method: Briefly, the cells were harvested in a permeabilization solution containing 0.1% Triton X-100, 2 µg/mL PI, 0.1% sodium citrate and 100 µg/mL RNAse (all from Sigma-Aldrich) and incubated in the dark for 15 min at room temperature. Finally, cell fluorescence was measured by flow cytometry with a BD LSRFortessa cytometer using BD FACSDiva Software (BD Biosciences) and FlowJo Software 10 (FlowJo Lcc; Ashland, OR, USA). Ten thousand events were evaluated per experiment, and cellular debris was omitted from the analysis.

SCC-15 = format: cell-based, human; conditions: SCC-15 (human oral squamous cell carcinoma), 72 h
HCT116 = format: cell-based, human; conditions: HCT116 (human colon carcinoma), 72 h
ACP-02 = format: cell-based, human
HL-60 = format: cell-based, human; conditions: HL-60 (human promyelocytic leukemia), 72 h
WT SV40 MEF = format: cell-based, mouse; conditions: 72 h
[4] = system: multicellular spheroids formed from HepG2 cells; test: 3D multicellular spheroid culture, alamar blue; format: cell-based, human; conditions: HepG2 3D spheroids, 72 h
Method: HepG2 cells were cultivated in 3D multicellular spheroids. Briefly, 100 μL of cell solution (0.5 × 10^6 cells/mL) was added to a 96-well plate with a cell-repellent surface (Greiner Bio-One, Kremsmünster, Austria) and cultured in complete medium plus 3% Matrigel (BD Biosciences, San Jose, CA, USA). Spheroids with stable structures formed after three days. Then, the spheroids were exposed to a range of drug concentrations for 72 h. The negative control received the vehicle that was used for diluting the complex tested. In the end of the experiment, morphological changes were examined by light microscopy (Olympus BX41, Tokyo, Japan) using Image-Pro software (Media Cybernetics, Inc. Silver Spring, USA), and cell viability was quantified by alamar blue assay as described above.

[5] = DOX 0.3 mg/kg, 5-FU 10 mg/kg, RCX 2.5 mg/kg
[6] = HepG2, 12 h, DOX 2 µM, OXA 10 µM, RCX 12 µM
[7] = HepG2, 24 h, DOX 2 µM, OXA 10 µM, RCX 12 µM
[8] = HepG2, 48 h, DOX 2 µM, OXA 10 µM, RCX 12 µM
[9] = HepG2, 72 h, DOX 2 µM, OXA 10 µM, RCX 12 µM
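For Final body weight in this document: mice bearing subcutaneous HepG2 xenografts, given intraperitoneal doses once daily for 21 days, weighed at start and end, blood leukocytes counted by light microscopy on day 22.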
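For Initial body weight in this document: mice bearing subcutaneous HepG2 xenografts, given intraperitoneal doses once daily for 21 days, weighed at start and end, blood leukocytes counted by light microscopy on day 22.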
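For liver histopathological characteristics in this document: mice bearing subcutaneous HepG2 xenografts, given intraperitoneal doses once daily for 21 days, weighed at start and end, blood leukocytes counted by light microscopy on day 22.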
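For lung histopathological characteristics in this document: mice bearing subcutaneous HepG2 xenografts, given intraperitoneal doses once daily for 21 days, weighed at start and end, blood leukocytes counted by light microscopy on day 22.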

COc1cc([O-])c(C(C)=O)c(OC)c1.F[P-](F)(F)(F)(F)F.[Ru+2].c1cnc2c(c1)ccc1cccnc12.c1cnc2c(c1)ccc1cccnc12 [RCX, cis-[Ru(phen)2(xant)](PF6)]
IC50 (PBMC): 4.6 µM | IC50 (B16-F10): 12.4 µM | displacement of ethidium bromide from ctDNA (fluorescence) (calf thymus DNA): decreased the ethidium bromide fluorescence | IC50 (SCC-4): 5.3 µM | IC50 (SCC-25): 6.5 µM | reduction of the number of viable cells (HepG2 cells [1]; HepG2, 12 μM, 24 h): 57.2% | reduction of the number of viable cells (HepG2 cells [1]; HepG2, 12 μM, 48 h): 74.6% | reduction of the number of viable cells (HepG2 cells [1]; HepG2, 12 μM, 72 h): 73.8% | reduction of the number of viable cells (HepG2 cells [1]; HepG2, 24 μM, 24 h): 62.2% | reduction of the number of viable cells (HepG2 cells [1]; HepG2, 24 μM, 48 h): 73.9% | reduction of the number of viable cells (HepG2 cells [1]; HepG2, 24 μM, 72 h): 82.1% | change in the number of viable cells (HepG2 cells [1]; HepG2, 12 and 24 μM, 12 h): No significant decrease in the number of viable cells | lung histopathological characteristics ([2]; atelectasis, hemorrhage, inflammation, congestion, doxorubicin 0.3 mg/kg, RCX both doses, 21 days): more pronounced in the doxorubicin and RCX (both doses) groups than in the other groups | Initial body weight ([2]; DOX 0.3 mg/kg, 5-FU 10 mg/kg, RCX 2.5 mg/kg groups): 22.2 ± 0.5 g | Initial body weight ([2]; RCX 5 mg/kg group): 21.1 ± 0.4 g | liver histopathological characteristics ([2]; hydropic degeneration, dilatation, necrosis, inflammation, RCX 2.5 and 5 mg/kg, 21 days): more pronounced in the RCX groups than in the other groups | Final body weight [2, 5]: 20.6 ± 0.4 g | Survival [2, 5]: 14/14 | Final body weight ([2]; RCX 5 mg/kg): 17.0 ± 0.4 g | Survival ([2]; RCX 5 mg/kg): 7/14 | Differential leukocytes: Eosinophils [2, 5]: 1.0% | Differential leukocytes: Lymphocytes [2, 5]: 49.3% | Differential leukocytes: Monocytes [2, 5]: 1.0% | Differential leukocytes: Neutrophils [2, 5]: 48.3% | Erythrocytes [2, 5]: 9.0 ± 0.6 10^6cells/μL | Total leukocytes [2, 5]: 3.1 ± 0.5 10^3cells/μL | Differential leukocytes: Eosinophils ([2]; RCX 5 mg/kg): 1.0% | Differential leukocytes: Lymphocytes ([2]; RCX 5 mg/kg): 49.0% | Differential leukocytes: Monocytes ([2]; RCX 5 mg/kg): 1.0% | Differential leukocytes: Neutrophils ([2]; RCX 5 mg/kg): 49.0% | Erythrocytes ([2]; RCX 5 mg/kg): 8.3 ± 0.3 10^6cells/μL | Total leukocytes ([2]; RCX 5 mg/kg): 2.6 ± 0.2 10^3cells/μL | IC50 (MRC-5): 21.3 µM | IC50 (BAD KO SV40 MEF): 4.1 µM | IC50 (HaCAT): 6.1 µM | IC50 (SCC-9): 3.4 µM | IC50 (HT-29): 3.4 µM | IC50 (HepG2): 13.5 µM | IC50 (AGP-01): 5.3 µM | DNA content G0/G1 (HepG2 cells [3]; [6]): 66.4 ± 4.0% | DNA content G2/M (HepG2 cells [3]; [6]): 13.3 ± 1.1% | DNA content S (HepG2 cells [3]; [6]): 18.0 ± 7.4% | DNA content Sub-G0/G1 (HepG2 cells [3]; [6]): 9.6 ± 1.1 % | DNA content G0/G1 (HepG2 cells [3]; HepG2, 12 h, RCX 24 µM): 68.9 ± 2.2% | DNA content G2/M (HepG2 cells [3]; HepG2, 12 h, RCX 24 µM): 13.9 ± 1.6% | DNA content S (HepG2 cells [3]; HepG2, 12 h, RCX 24 µM): 8.6 ± 4.5% | DNA content Sub-G0/G1 (HepG2 cells [3]; HepG2, 12 h, RCX 24 µM): 13.0 ± 2.5 % | DNA content G0/G1 (HepG2 cells [3]; [7]): 38.2 ± 1.2 % | DNA content G2/M (HepG2 cells [3]; [7]): 17.6 ± 0.9% | DNA content S (HepG2 cells [3]; [7]): 22.4 ± 0.7 % | DNA content Sub-G0/G1 (HepG2 cells [3]; [7]): 15.3 ± 0.6 % | DNA content G0/G1 (HepG2 cells [3]; HepG2, 24 h, RCX 24 µM): 29.9 ± 2.7 % | DNA content G2/M (HepG2 cells [3]; HepG2, 24 h, RCX 24 µM): 13.0 ± 1.3% | DNA content S (HepG2 cells [3]; HepG2, 24 h, RCX 24 µM): 13.0 ± 1.6% | DNA content Sub-G0/G1 (HepG2 cells [3]; HepG2, 24 h, RCX 24 µM): 34.7 ± 1.4 % | DNA content G0/G1 (HepG2 cells [3]; [8]): 23.3 ± 2.0 % | DNA content G2/M (HepG2 cells [3]; [8]): 9.0 ± 0.8 % | DNA content S (HepG2 cells [3]; [8]): 11.5 ± 2.7% | DNA content Sub-G0/G1 (HepG2 cells [3]; [8]): 44.1 ± 6.3 % | DNA content G0/G1 (HepG2 cells [3]; HepG2, 48 h, RCX 24 µM): 18.9 ± 3.0 % | DNA content G2/M (HepG2 cells [3]; HepG2, 48 h, RCX 24 µM): 6.5 ± 0.7 % | DNA content S (HepG2 cells [3]; HepG2, 48 h, RCX 24 µM): 10.3 ± 1.3% | DNA content Sub-G0/G1 (HepG2 cells [3]; HepG2, 48 h, RCX 24 µM): 62.6 ± 3.4 % | DNA content G0/G1 (HepG2 cells [3]; [9]): 23.6 ± 1.9 % | DNA content G2/M (HepG2 cells [3]; [9]): 11.1 ± 1.8% | DNA content S (HepG2 cells [3]; [9]): 13.2 ± 0.8% | DNA content Sub-G0/G1 (HepG2 cells [3]; [9]): 42.6 ± 6.8 % | DNA content G0/G1 (HepG2 cells [3]; HepG2, 72 h, RCX 24 µM): 19.7 ± 3.3 % | DNA content G2/M (HepG2 cells [3]; HepG2, 72 h, RCX 24 µM): 6.7 ± 0.7% | DNA content S (HepG2 cells [3]; HepG2, 72 h, RCX 24 µM): 4.9 ± 1.1 % | DNA content Sub-G0/G1 (HepG2 cells [3]; HepG2, 72 h, RCX 24 µM): 68.2 ± 3.7 % | IC50 (SCC-15): 6.8 µM | IC50 (HCT116): 1.6 µM | selectivity index (SI) (ACP-02): 0.3 | IC50 (ACP-02; ACP-02 (human gastric adenocarcinoma), 72 h): 18.3 µM | IC50 (HL-60): 6.6 µM | IC50 (WT SV40 MEF): 3.9 µM | IC50 [4]: 8 µM
